Data taken from patent US20240093148A1, “METHOD FOR DIFFERENTIATING HUMAN INDUCED PLURIPOTENT STEM CELLS INTO OLIGODENDROCYTES, AND KIT AND USE” (ALLIFE MEDICINE (ZHUHAI) LIMITED, priority 2021, published 2024).

Test system: human induced pluripotent stem cells
Experiment: Induction of oligodendrocytes from iPSC in OPC mature culture medium with or without puerarin (immunofluorescence, cell count)
Assay type: cell-based
Procedure: Cleaned with DPBS three times, 3 minutes per time, and fixed with 4% PFA at room temperature for 40 minutes. Cleaned with DPBS three times, 3 minutes per time. 0.5% TritonX-100, perforation for 15 minutes. 5% BSA+0.15% TritonX-100, blocked at room temperature for 1 hour. Preparation of PBST: DPBS+1% BSA+0.15% TritonX-100. The primary antibody was added, stay overnight at 4 degrees. Recycled the primary antibody solution and cleaned it with PB ST three times for 10 minutes each time. The secondary antibody was added with a ratio of 1:500, stayed overnight at 4 degrees, away from light. Cleaned with PB ST three times for 10 minutes each time. 5 μg/ml DAPI for 2-3 minutes, away from light. Cleaned with DPBS and added 90% glycerol.
OPC mature medium—containing puerarin: 95% DMEM/F-12 medium, 1% non-essential amino acid, 1% GlutaMAX-I, 0.1 mM 2-mercaptoethanol, 1% N2 supplement, 2% B27 supplement, 10 ng/mL PDGF-AA, 10 ng/mL IGF-1, 5 ng/mL HGF, 10 ng/mL NT3, 60 ng/mL T3, 100 ng/mL Biotin, 1 μM cAMP, 25 μM Puerarin, 25 μg/ml insulin. […]
On the 37th day of cultivation, the percentage of oligodendrocytes in all cells was quantitatively counted, as shown in FIG. 3.

O=c1c(-c2ccc(O)cc2)coc2c([C@@H]3O[C@H](CO)[C@@H](O)[C@H](O)[C@H]3O)c(O)ccc12 [puerarin, Puerarin]
percentage of oligodendrocytes in all cells (day 37 of cultivation, 25 μM puerarin in OPC mature culture medium, control medium without puerarin about 21%): about 36% | increase of the number of oligodendrocytes (later stage of induction of iPSC to oligodendrocytes): 30%
